Molecular target: T1, human CXCR3 (N-delta 4) (Homo sapiens, UniProt P49682)
T1 construct: CD8 leader (N); Flag tag; expressed in transfected cells; membrane preparation
T1 sequence (P49682 5-368 limits assumed): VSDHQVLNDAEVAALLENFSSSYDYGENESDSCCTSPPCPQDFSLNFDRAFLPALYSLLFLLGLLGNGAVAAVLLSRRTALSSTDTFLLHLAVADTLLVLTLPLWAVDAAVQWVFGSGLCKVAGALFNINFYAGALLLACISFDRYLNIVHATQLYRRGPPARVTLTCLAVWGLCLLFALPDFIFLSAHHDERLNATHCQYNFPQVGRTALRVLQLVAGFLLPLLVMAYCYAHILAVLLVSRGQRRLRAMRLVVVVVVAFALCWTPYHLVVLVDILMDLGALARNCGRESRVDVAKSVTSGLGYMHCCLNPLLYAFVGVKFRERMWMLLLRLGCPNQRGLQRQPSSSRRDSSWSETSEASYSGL
Assay: Human CXCR3 (N-delta 4) scintillation proximity assay (SPA), [125I] IP-10 binding to Ba/F3-hCXCR3 membranes
Settings: IC50 rating; [125I] IP-10 displacement, human CXCR3; read-out: IC50
Text: The inventive compounds can readily be evaluated to determine activity at the CXCR3 receptors by known methods, such as, for example, development of a human CXCR3 (N-delta 4) Binding Assay.
The DNA encoding human CXCR3 was cloned by PCR using human genomic DNA (Promega, Madison, Wis.) as a template. The PCR primers were designed based on the published sequence of human orphan receptor GPR9 (1) with incorporated restriction sites, a Kozak consensus sequence, CD8 leader and Flag tag. The PCR product was subcloned into the mammalian expression vector pME18Sneo, a derivative of the SR-alpha expression vector (designated as pME18Sneo-hCXCR3 (N-delta 4).
IL-3-dependent mouse pro-B cells Ba/F3 were transfected by electroporation in 0.4 ml Dulbecco's PBS containing 4×10^6 cells with 20 μg of pME18Sneo-hCXCR3 (N-delta 4) plasmid DNA. Cells were pulsed at 400 Volts, 100 OHMs, 960 μFd. The transfected cells were under selection with 1 mg/ml G418 (Life Technologies, Gaithersburg, Md.). G418-resistant Ba/F3 clones were screened for CXCR3 expression by specific binding of [^125I] IP-10 (NEN Life Science Products, Boston, Mass.).
Ba/F3 cells expressing human CXCR3 (N-delta 4) were pelleted and resuspended in the lysis buffer containing 10 mM HEPES, pH 7.5 and Complete® protease inhibitors (1 tablet per 100 ml) (Boehringer Mannheim, Indianapolis, Ind.) at a cell density of 20×10^6 cells per ml. After 5 minute incubation on ice, cells were transferred to 4639 cell disruption bomb (Parr Instrument, Moline, Ill.) and applied with 1,500 psi of nitrogen for 30 minutes on ice. Large cellular debris was removed by centrifugation at 1,000×g. Cell membrane in the supernatant was sedimented at 100,000×g. The membrane was resuspended in the lysis buffer supplemented with 10% sucrose and stored at −80° C. Total protein concentration of the membrane was determined by BCA method from Pierce (Rockford, Ill.).
Human CXCR3 (N-Delta 4) Scintillation Proximity Assay (SPA):
For each assay point, 2 μg of membrane was preincubated for 1 hr with 300 μg wheat germ agglutinin (WGA) coated SPA beads (Amersham, Arlington Heights, Ill.) in the binding buffer (50 mM HEPES, 1 mM CaCl2, 5 mM MgCl2, 125 mM NaCl, 0.002% NaN3, 1.0% BSA) at room temperature. The beads were spun down, washed once, resuspended in the binding buffer and transferred to a 96-well Isoplate (Wallac, Gaithersburg, Md.). 25 pM of [^125I] IP-10 with tested compounds in a series of titration were added to start the reaction. After 3 hr reaction at room temperature, the amount of [^125I] IP-10 bound to the SPA beads was determined with a Wallac 1450 Microbeta counter.

| IC50 | SMILES |
| --- | --- |
| > 100 nM | CC[C@H]1CN(c2ncc(NS(C)(=O)=O)cc2Cl)CCN1C1CCN([C@@H](C(=O)NC)c2ccc(Cl)cc2)CC1 [Compound 54] |
| < 25 nM | CC[C@H]1CN(c2ncc(NS(C)(=O)=O)cc2Cl)CCN1C1CCN([C@H](CO)c2ccc(Cl)cc2)CC1 [Compound 4] |
| 25 to 100 nM | CC[C@H]1CN(c2ncc(NS(C)(=O)=O)cc2Cl)CCN1C1CCN(C(=O)c2ccc(Cl)cc2N)CC1 [Compound 24] |
| < 25 nM | CC[C@H]1CN(c2ncc(NC3=NS(=O)(=O)N=C3NC[C@H](C)O)cc2Cl)CCN1C1CCN(Cc2ccc(Cl)cc2F)CC1 [Compound 253] |
| 25 to 100 nM | CC[C@H]1CN(c2ncc(Nc3c(NCC(N)=O)c(=O)c3=O)cc2Cl)CCN1C1CCN([C@H](CO)c2ccc(Cl)cc2)CC1 [Compound 103] |
| > 100 nM | C[C@H]1CN(c2ncc(NC(=O)c3cccnc3)cc2Cl)CCN1C1CCN(Cc2ccc(Cl)cc2)CC1 [Compound 196] |
| < 25 nM | CC[C@H]1CN(c2ncc(N)cc2Cl)CCN1C1CCN(Cc2ccc(Br)cc2F)CC1 [Compound 203] |
| 25 to 100 nM | CC[C@H]1CN(c2ncc([N+](=O)[O-])cc2Cl)CCN1C1CCN(Cc2ccc(Cl)cc2F)CC1 [Compound 212] |
| > 100 nM | C[C@@H]1CN(C2CCN(Cc3ccc(Cl)cc3)CC2)[C@@H](C)CN1c1ncc(NC(=O)NCC(F)(F)F)cc1Cl [Compound 197] |
| 25 to 100 nM | CC[C@H]1CN(c2ncc(-n3cccn3)cc2Cl)CCN1C1CCN(Cc2ccc(OC(F)(F)F)cc2)CC1 [Compound 210] |
| > 100 nM | C[C@H]1CN(c2nc(Cl)c(N)cc2Cl)CCN1C1CCN(Cc2ccc(Cl)cc2F)CC1 [Compound 228] |
| < 25 nM | CC[C@H]1CN(c2ncc(NC3=NS(=O)(=O)N=C3NC3CC3)cc2Cl)CCN1C1CCN(Cc2ccc(F)c(F)c2)CC1 [Compound 251] |
| 25 to 100 nM | CC[C@H]1CN(c2ncc(NS(C)(=O)=O)cc2Cl)CCN1C1CCN(C(C(=O)OC)c2ccc(Cl)cc2)CC1 (stereo partly shown) [Compound 27] |
| 25 to 100 nM | CC[C@H]1CN(c2ncc(NC3=NS(=O)(=O)N=C3N(C)C)cc2Cl)CCN1C1CCN(Cc2ccc(Cl)cc2C(=N)NO)CC1 [Compound 256] |
| > 100 nM | CC[C@H]1CN(c2ncc(NC3=NS(=O)(=O)N=C3NC(CO)C(N)=O)cc2Cl)CCN1C1CCN(Cc2ccc(Cl)cc2F)CC1 (stereo partly shown) [Compound 276] |
| > 100 nM | COc1ccc(CN2CCC(N3CCN(c4ncc(NS(C)(=O)=O)cc4Cl)C[C@@H]3C)CC2)c(F)c1 [Compound 56] |
| > 100 nM | C[C@@H]1CN(C2CCN(Cc3ccc(Cl)cc3F)CC2)[C@@H](C)CN1c1ncc(NS(C)(=O)=O)cc1Cl [Compound 50] |
| < 25 nM | CC[C@H]1CN(c2ncc(NC(=O)NC3CC3)cc2Cl)CCN1C1CCN(Cc2ccc(Cl)cc2F)CC1 [Compound 185] |
| 25 to 100 nM | CC[C@H]1CN(c2ncc(N(C)C)cc2Cl)CCN1C1CCN(C(CO)c2ccc(Cl)cc2)CC1 (stereo partly shown) [Compound 213] |
| < 25 nM | CC[C@H]1CN(c2ncc(Nc3c(NC4CC4)c(=O)c3=O)cc2Cl)CCN1C1CCN([C@@H](C(=O)NC)c2ccc(Cl)cc2)CC1 [Compound 101] |
| < 25 nM | CC(=O)Nc1cnc(N2CCN(C3CCN(Cc4ccc(Cl)cc4)CC3)[C@@H](C)C2)c(Cl)c1 [Compound 181] |
| < 25 nM | CC[C@H]1CN(c2ncc(Nc3c(C(C)C)c(=O)c3=O)cc2Cl)CCN1C1CCN(Cc2ccc(C#N)cc2)CC1 [Compound 88] |
| > 100 nM | C[C@H]1CN(c2ncc(NC(=O)c3ccc(Cl)cc3)cc2Cl)CCN1C1CCN(Cc2ccc(Cl)cc2)CC1 [Compound 200] |
| < 25 nM | CC[C@H]1CN(c2ncc(NS(C)(=O)=O)cc2Cl)CCN1C1CCN(Cc2ccc(F)c(F)c2)CC1 [Compound 21] |
| > 100 nM | CC[C@H]1CN(c2ncc(NS(C)(=O)=O)cc2Cl)CCN1C1CCN(Cc2cc3ccccc3o2)CC1 [Compound 48] |
| > 100 nM | C[C@H]1CN(c2ncc(NC(=O)Nc3ccc(F)cc3)cc2Cl)CCN1C1CCN(Cc2ccc(Cl)cc2)CC1 [Compound 199] |

More lines, now with the values behind:

| SMILES | IC50 |
| --- | --- |
| CC[C@H]1CN(c2ncc(NC3=NS(=O)(=O)N=C3NC3CC3)cc2Cl)CCN1C1CCN(C(=O)c2ccc(Cl)cc2O)CC1 [Compound 275] | > 100 nM |
| CC[C@H]1CN(c2ncc(Nc3c(NC4CC4)c(=O)c3=O)cc2Cl)CCN1C1CCN(Cc2ccc(Cl)cc2C(N)=O)CC1 [Compound 81] | < 25 nM |
| CC[C@H]1CN(c2ncc(NC(=O)Oc3ccccc3)cc2Cl)CCN1C1CCN(Cc2ccc(Cl)cc2F)CC1 [Compound 189] | 25 to 100 nM |
| C[C@@H]1CN(c2ncc(Nc3c(NCC(F)(F)F)c(=O)c3=O)cc2Cl)[C@@H](C)CN1C1CCN(Cc2ccc(Cl)cc2F)CC1 [Compound 89] | < 25 nM |
| CC[C@H]1CN(c2ncc(Nc3c(NC4CC4)c(=O)c3=O)cc2Cl)CCN1C1CCN([C@H](CO)c2ccc(Cl)cc2)CC1 [Compound 71] | < 25 nM |
| CC[C@H]1CN(c2ncc(NS(C)(=O)=O)cc2Cl)CCN1C1CCN(Cc2cc(Br)cs2)CC1 [Compound 44] | > 100 nM |
| C[C@@H]1CN(c2ncc(Nc3c(NCC(F)(F)F)c(=O)c3=O)cc2Cl)[C@@H](C)CN1C1CCN(Cc2ccc(Cl)cc2Cl)CC1 [Compound 134] | > 100 nM |
| CC[C@H]1CN(c2ncc(NC3=NS(=O)(=O)N=C3NCCNS(C)(=O)=O)cc2Cl)CCN1C1CCN(Cc2ccc(Cl)cc2F)CC1 [Compound 274] | > 100 nM |
| CC(C)CCN1CCC(N2C[C@H](C)N(c3ncc(Nc4c(NCC(F)(F)F)c(=O)c4=O)cc3Cl)C[C@H]2C)CC1 [Compound 113] | > 100 nM |
| C[C@@H]1CN(C2CCN(Cc3ccc(Cl)cc3F)CC2)[C@@H](C)CN1c1ncc(N)cc1N [Compound 233] | > 100 nM |
| CC(C)C1CCC(N2CCC(N3C[C@H](C)N(c4ncc(Nc5c(NCC(F)(F)F)c(=O)c5=O)cc4Cl)C[C@H]3C)CC2)CC1 (stereo partly shown) [Compound 169] | > 100 nM |
| CSc1ccc(CN2CCC(N3C[C@H](C)N(c4ncc(Nc5c(NCC(F)(F)F)c(=O)c5=O)cc4Cl)C[C@H]3C)CC2)cc1 [Compound 121] | > 100 nM |
| C[C@@H]1CN(c2ncc(Nc3c(NCC(F)(F)F)c(=O)c3=O)cc2Cl)[C@@H](C)CN1C1CCN(Cc2ccccc2Cl)CC1 [Compound 155] | > 100 nM |
| CC[C@H]1CN(c2ncc(NC3=NS(=O)(=O)N=C3N3CCOCC3)cc2Cl)CCN1C1CCN(Cc2ccc(F)c(F)c2)CC1 [Compound 269] | > 100 nM |
| CCC(C)(C)C1CCC(N2CCC(N3C[C@H](C)N(c4ncc(Nc5c(NCC(F)(F)F)c(=O)c5=O)cc4Cl)C[C@H]3C)CC2)C1 (stereo partly shown) [Compound 144] | > 100 nM |
| C[C@@H]1CN(c2ncc(Nc3c(NCC(F)(F)F)c(=O)c3=O)cc2Cl)[C@@H](C)CN1C1CCN(Cc2cc3ccccc3o2)CC1 [Compound 133] | > 100 nM |
| CC[C@H]1CN(c2ncc(NC3=NS(=O)(=O)N=C3NC3CC3)cc2Cl)CCN1C1CCN(Cc2ccc(C#N)nc2)CC1 [Compound 266] | > 100 nM |
| CC[C@H]1CN(c2ncc(N(C)c3c(NC4CC4)c(=O)c3=O)cc2Cl)CCN1C1CCN([C@H](C(N)=O)c2ccc(Cl)cc2)CC1 [Compound 112] | 25 to 100 nM |
| CCCCNC1=NS(=O)(=O)N=C1Nc1cnc(N2CCN(C3CCN(Cc4ccc(Cl)cc4C(=N)NO)CC3)[C@@H](CC)C2)c(Cl)c1 [Compound 241] | < 25 nM |
| C[C@@H]1CN(c2ncc(Nc3c(NCC(F)(F)F)c(=O)c3=O)cc2Cl)[C@@H](C)CN1C1CCN(C2CCCC(C(F)(F)F)C2)CC1 (stereo partly shown) [Compound 172] | > 100 nM |

Reference: patent US7566718B2, “Amine-linked pyridyl and phenyl substituted piperazine-piperidines with CXCR3 antagonist activity” (Schering Corporation, priority 2005, dated 2009)
